Data from article PMC6476928 (Frontiers in Pharmacology, 2019).
Numbering of substitutions follows the chain as printed.

Legend:
Kv4.2 V290A = molecular target: T1, Kv4.2 V290A (Homo sapiens, UniProt Q9NZV8, V290A); test: Patch clamp of Kv4.2 mutant V290A in HEK293T cells; assay type: cell-based
T1 construct: expressed in transfected cells; host or cells: HEK293T
T1 sequence (Q9NZV8 1-630 V290A): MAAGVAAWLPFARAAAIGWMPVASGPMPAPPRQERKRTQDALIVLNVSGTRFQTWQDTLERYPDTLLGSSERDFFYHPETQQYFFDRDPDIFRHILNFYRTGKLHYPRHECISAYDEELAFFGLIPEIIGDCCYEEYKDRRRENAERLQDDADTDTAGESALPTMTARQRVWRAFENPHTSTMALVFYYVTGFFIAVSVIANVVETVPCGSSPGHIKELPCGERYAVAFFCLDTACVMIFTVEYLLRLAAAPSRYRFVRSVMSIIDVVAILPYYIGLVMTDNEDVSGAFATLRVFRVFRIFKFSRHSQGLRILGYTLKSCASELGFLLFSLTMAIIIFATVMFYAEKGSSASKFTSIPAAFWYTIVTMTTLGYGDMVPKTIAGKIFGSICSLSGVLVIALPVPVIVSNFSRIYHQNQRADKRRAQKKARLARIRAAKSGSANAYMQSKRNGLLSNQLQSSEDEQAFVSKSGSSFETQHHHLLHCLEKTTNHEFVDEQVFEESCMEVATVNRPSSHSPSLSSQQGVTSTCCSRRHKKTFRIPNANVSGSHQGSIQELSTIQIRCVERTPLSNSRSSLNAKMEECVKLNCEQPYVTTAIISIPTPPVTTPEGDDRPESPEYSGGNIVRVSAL
T1 sequence (Q9NS61 1-270 partner): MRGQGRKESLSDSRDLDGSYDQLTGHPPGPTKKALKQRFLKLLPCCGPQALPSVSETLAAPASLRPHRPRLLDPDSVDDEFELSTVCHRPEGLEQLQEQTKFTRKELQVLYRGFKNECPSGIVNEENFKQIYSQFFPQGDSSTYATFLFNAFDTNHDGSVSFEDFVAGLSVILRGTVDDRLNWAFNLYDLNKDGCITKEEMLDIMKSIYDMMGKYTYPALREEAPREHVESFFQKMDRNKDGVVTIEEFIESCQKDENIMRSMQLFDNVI
Experimental: (§2) Human embryonic kidney cell line (HEK293T) was obtained from Shanghai Institute of Cell Biology, Chinese Academy of Sciences (Shanghai, China) and maintained with 5% CO2 at 37°C in DMEM supplemented with 10% heat-inactivated fetal calf and serum (FBS), penicillin (100 U/ml), and streptomycin (100 μg/ml). The WT/mutant Kv4.2 plasmids were transiently transfected into HEK293T by Lipofectamine^TM 2000 Reagent (Invitrogen), and the KChIP2 subunits were co-transfected with Kv4.2.
(§3) The extracellular buffer and pipette solution for AP, Ito, and Kv4.2 were used as follows.
(§4) Kv4.2 current, The pipette solution contained (mM) 140 KF, 5 ATP-2Na, 1 EGTA, and 10 HEPEs (pH = 7.4). […] The steady-state activation of Kv4.2 was measured with the holding potential −80 mV and applied from −80 mV to 70 mV (10-mV increments). Steady-state inactivation of Kv4.2 channel measured with a series of a 300-ms depolarizing test potential of 10 mV followed a 1000-ms prepulse at potentials ranging from −120 to +70 mV with a 5-mV increment.
(§5) Data were analyzed using the clampfit (Axon) and Origin 9 software programs. […] The steady-state activation relationship was measured using Boltzmann function (f(V) = 1/{1 + exp[−(V−V1/2)/k]}^4). Steady-state inactivation was measured using the Boltzmann function f(V) = 1/{1 + exp[−(V − V1/2)/k]}.

[1] = system: A-type potassium channels in DRG cells; conditions: ref Zeng et al., 2008; read-out: IC50, block of A-type potassium channels in DRG cells; cited from earlier work
Kv4.2 L277A = test: Patch clamp of Kv4.2 mutant L277A in HEK293T cells; assay type: cell-based
Excerpt: (§1) All data points are shown as mean SEM.

[2] = system: Kv4.2 S1–S2 linker mutants; test: Patch clamp of Kv4.2 S1–S2 linker alanine mutants in HEK293T cells; assay type: cell-based; conditions: all S1–S2 linker mutants, N = 5
Excerpt: as §1

Kv4.2 I275A = test: Patch clamp of Kv4.2 mutant I275A in HEK293T cells; assay type: cell-based
Excerpt: as §1

Kv4.2 F289A = molecular target: T2, Kv4.2 F289A (Homo sapiens, UniProt Q9NZV8, F289A); test: Patch clamp of Kv4.2 mutant F289A in HEK293T cells; assay type: cell-based
T2 construct: expressed in transfected cells; host or cells: HEK293T
T2 sequence (Q9NZV8 1-630 F289A): T1 sequence (Q9NZV8 1-630 V290A) with F289A, A290V
T2 sequence (Q9NS61 1-270 partner): T1 sequence (Q9NS61 1-270 partner)
Experimental: as §2, §3, §4, §5

Kv4.2 V285A = molecular target: T3, Kv4.2 V285A (Homo sapiens, UniProt Q9NZV8, V285A); test: Patch clamp of Kv4.2 mutant V285A in HEK293T cells; assay type: cell-based
T3 construct: expressed in transfected cells; host or cells: HEK293T
T3 sequence (Q9NZV8 1-630 V285A): T1 sequence (Q9NZV8 1-630 V290A) with V285A, A290V
T3 sequence (Q9NS61 1-270 partner): T1 sequence (Q9NS61 1-270 partner)
Experimental: as §2, §3, §4, §5

Ito1 current of NRVMs = test: Whole-cell patch clamp of Ito1 current in neonatal rat ventricular myocytes; assay type: cell-based; conditions: 100 nM JZTX-V, at 30 mV, holding potential −40 mV, N = 4, mean ± SEM
Excerpt: Neonatal rat ventricular myocytes cells were obtained from ventricles of neonatal Sprague–Dawley rats as previously reported ([Sung et al., 2012]; [Yan et al., 2018]). SD rats (Hunan SJA Laboratory Animal Co., Ltd., Changsha, China) were used according to the guidelines of the National Institutes of Health for Care and Use of Laboratory Animals. The experiments were approved by the Animal Care and Use Committee of Hunan Normal University.
Ito currents, The Ca^2+-currents blocker CdCl2 (200-μmol/L) were used in external solutions. To generate Ito1 current, cells were held at −40 mV to inactivate the fast Na^+ current and then stepped to potentials of −40 mV to +60 mV in 10-mV increments.
as §1

CC[C@H](C)[C@H](NC(=O)[C@@H](NC(=O)[C@H](CCCCN)NC(=O)[C@H](CCCNC(=N)N)NC(=O)[C@@H]1CSSC[C@@H]2NC(=O)[C@H](C)NC(=O)[C@H](CCCNC(=N)N)NC(=O)[C@H](CCCCN)NC(=O)[C@H](CO)NC(=O)[C@H](CC(=O)O)NC(=O)[C@@H]3CSSC[C@H](NC(=O)[C@H](CCCNC(=N)N)NC(=O)[C@H](CC(C)C)NC(=O)CNC(=O)[C@H](CCC(=O)O)NC(=O)[C@H](CSSC[C@H](NC(=O)[C@@H](N)Cc4ccc(O)cc4)C(=O)N[C@@H](CCC(N)=O)C(=O)N[C@@H](CCCCN)C(=O)N[C@@H](Cc4c[nH]c5ccccc45)C(=O)N[C@@H](CCSC)C(=O)N[C@@H](Cc4c[nH]c5ccccc45)C(=O)N[C@@H]([C@@H](C)O)C(=O)N3)NC2=O)C(=O)N[C@@H](CCCCN)C(=O)N[C@@H](CC(C)C)C(=O)N[C@@H](Cc2c[nH]c3ccccc23)C(=O)N1)[C@@H](C)CC)C(=O)O [JZTX-V, Jingzhaotoxin-V]
reduction of sensitivity to the toxin vs WT Kv4.2 (Kv4.2 V290A): ~12 fold
IC50 [1]: 52.3 nM
increase of affinity for JZTX-V vs WT Kv4.2 (Kv4.2 L277A): ~20 fold
JZTX-V binding affinity for Kv4.2 S1–S2 linker alanine mutants [2]: only a slight decrease
increase of affinity for JZTX-V vs WT Kv4.2 (Kv4.2 I275A): ~10 fold
reduction of sensitivity to the toxin vs WT Kv4.2 (Kv4.2 F289A): ~11 fold
reduction of sensitivity to the toxin vs WT Kv4.2 (Kv4.2 V285A): ~7 fold
inhibition of Ito1 current of NRVMs (Ito1 current of NRVMs): 78 ± 4.32%
